This note sets out measurements from patent publication US20240425710A1, “PEPTIDE-BASED BIOINK COMPOSITIONS” (Ramot at Tel-Aviv University Ltd., priority 2022, published 2024).

The star is where a group is joined. Fmoc = O=C(OCC1c2ccccc2-c2ccccc21)*

Holding throughout (assay type): physicochemical
Series [1] can be described thus: Time sweep rheology of peptide hydrogels and hybrid hydrogels. As to conditions: 5 Hz; for G′/G″ / G′ (storage modulus) / G″ (loss modulus): hydrogels 5 g·L−1, time sweep 0.5% strain; for G′ (storage modulus): after 4 hours of gelation; for G′ (storage modulus) / G″ (loss modulus): room temperature. The method, then:
Rheological measurements: Rheological analysis was performed using an AR-G2 controlled rheometer (TA Instruments, New Castle, DA, USA). Oscillatory strain (0.01-100%) and frequency sweep (0.01-100 Hz) were conducted on 100 μL samples of pre gelated disks, 8 mm in diameter. The measurement was conducted with an 8 mm geometry (resulting in a gap size of 1 mm) at room temperature, in order to define the viscoelastic region in which the oscillatory test was performed.
Time-sweep oscillatory analyses used a constant a frequency of 5 Hz and a strain of 0.5%. Freshly prepared samples (220 μL) were placed under a 20 mm parallel plate geometry (resulting in a gap of 0.6 mm) at room temperature to determine the G′ (storage modulus) and G″, (loss modulus) for each sample.
The in situ kinetics of the hydrogels formation and their mechanical properties were characterized by time sweep measurements over 4 hours at a fixed strain of 0.5% and frequency of 5 Hz, and the results are presented in FIGS. 3A-B.

Series [2] is described as follows: Hydrogel formation, inverted tubes after overnight gelation. As to conditions: single peptide, 5 g·L−1 in water from DMSO stock. The method, then:
Preparation of hydrogels: Stock solutions of each of Fmoc-FF, PepA and PepB were prepared by dissolving the respective peptides in dimethyl sulfoxide (DMSO) at a concentration of 100 gram/liter (g·L^−1). The hydrogels were prepared by diluting the stock solution in double distilled water to a final concentration of 5 grams/Liter (5 g·L^−1), to thereby obtain a hydrogel formulation. The mixture was vortexed for 2 seconds and then incubated at room temperature until gelation occurred, thereby providing a hydrogel bioink composition.
Hydrogels made of a single peptide and hybrid hydrogels made of two peptides were prepared using the solvent switch method by dissolving the monomers in DMSO and then diluting the stock solutions into water to a final concentration of 5 g-L.

Series [3] in a line: TEM imaging of hydrogel fibrils. The following applies: hydrogels 5 g·L−1. The method, then: Transmission electron microscopy (TEM): Samples (10 μl) were placed on copper grids (400 mesh) covered with a carbon-stabilized Formvar film (EMS, BNFFA1000-Cu). After 2 minutes, excess gel was removed, and the grids were negatively stained with 10 μl of UranylLess staining solution for 1 minute. Finally, excess fluid was removed, and the samples were viewed in a JEM 1400plus electron microscope operating at 80 kV.

Series [4] is described as follows: Absorbance kinetics of the hydrogel formation (turbidity at 400 nm). The method, then: Absorbance kinetics of the hydrogel formation: Samples of 100 μL of Fmoc-FF, PegA, PepB formulations and the co-assembled hydrogels (bioink compositions) were placed into a 96-well plate. Absorbance at 400 nm was measured every 30 seconds using a TECAN Infinite M2000PRO plate reader for a total of 4 hours.
To further evaluate the impact of co-assembly on gelation kinetics, the absorbance spectra of the hybrid hydrogels compared to the Fmoc-FF hydrogel at 400 nm was monitored over time and the results are presented in FIGS. 8A-B.

Regarding Fmoc-Phe-Phe-EG6-COOH [PepB], in series [1], the “G′/G″” value is listed as 0, the “G′ (storage modulus)” value is reported as 1 Pa and the “G″ (loss modulus)” value was 1 Pa. The hydrogel formation entry in series [2] was “did not form a hydrogel at all”.
In the case of Fmoc-Phe-Phe-EG2—COOH [PepA], in series [1], the “G′/G″” value worked out at 3, the “G′ (storage modulus)” value is 157 Pa and the “G″ (loss modulus)” value stood at 42 Pa. In addition, the hydrogel formation entry in series [2] is on record as “formed a weak hydrogel”. Further, the fibril diameter in series [3] is listed as 9 nm.
In the case of “Fmoc-Phe-Phe-OH [Fmoc-FF, reference compound]”, the “time to form a clear hydrogel (absorbance drop)” value in series [4] (absorbance at 400 nm monitored over time) is on record as “within a few minutes”. The substance also showed an OD value reached in series [4] (absorbance at 400 nm, minimum after clearing) of 0.1 OD. In series [1], the “G′/G″” value is reported as 37, the “G′ (storage modulus)” value is reported as 9552 Pa and the “G″ (loss modulus)” value turned out to be 251 Pa. In addition, the “time to gelation / plateau of hydrogel formation” value in series [1] (time sweep over 4 hours, 0.5% strain, 5 g·L−1) is at most 4 min. In addition, in series [2], the hydrogel formation result was “rigid and stable”. In series [3], this substance showed a fibril diameter of 16 nm.
